Some results are limits rather than exact numbers.

What is called melting point is the temperature of the solid-liquid transition. On to `CC(=O)O[C@@H]1OCC[C@@H]1NC(=O)[C@H](CC(C)C)NC(=O)Nc1cccc2ccccc12`, for which the melting point lay in the range of 196 to 198 °C.

`O=C1CC(c2cccc(-n3ccnn3)c2)=Nc2ccc(-c3cccc(F)c3F)cc2N1` gave a melting point of 230 °C.

As for `O=S(=O)(c1ccccc1)c1cc(Br)nc(Br)c1`, the melting point was 134 to 135 °C.

`Nc1cc2c(cc1Br)C(=O)OC2` gave a melting point of 235 to 241 °C.

`CCc1nnc2c(Nc3ccccc3)nc3ccccc3n12` had a melting point of 172 to 174 °C.

On to `C=C(C)C(=O)NCCCC(=O)Nc1cc(Cl)c(C)c(Cl)c1O`, for which the melting point lay in the range of 119 to 121 °C.

Take `O=CCCc1c[nH]c2ccc(F)cc12`: the melting point fell in the range of 79 to 80 °C.

Compound `CCN(CC)CCC1CCN(CCNC(=O)N2c3ccccc3C(=O)Nc3cccnc32)CC1` yielded a melting point of 170 to 172 °C.

`Cc1cc(-c2c(F)cc3c(=O)c(C(=O)O)cn(C4CC4)c3c2F)cc(C)n1`: the melting point lay in the range of 246 to 248 °C.

Compound `CNC(=NC#N)NCCSCc1csc(NC(=S)NCC(F)(F)F)n1` showed a melting point of 157 to 158 °C.

In turn, `CCCCCNC(=O)N(C)c1cccc(-c2ccc(C=C(OC)C(=O)O)cc2)c1` displayed a melting point of 144 °C.

On to `CCSCC(=O)Nc1c(C)cccc1C`, for which the melting point lay within 96 to 98 °C.

`CN(Cc1ccccc1)[C@@H](CC(N)=O)C(=O)N[C@@H](Cc1ccccc1)[C@H](O)C(=O)N1CCC[C@H]1C(=O)NC(C)(C)C` showed a melting point of 97 to 100 °C.

`COc1ccc(C2CCC(C(=O)O)CC2)c2c1OCO2` (centres undefined): the melting point fell in the range of 206 to 208 °C.

Turning to `O=C(O)CCCSC(=S)NCCCc1ccc(Cl)cc1`, the melting point is 98 to 100 °C.

Regarding `CN1CCN(S(=O)(=O)c2ccc(Nc3ncnc4cc(Cl)ccc34)cc2)CC1`, the melting point fell in the range of 237 to 239 °C.

Turning to `O=C1CCCCCCCCCCCCC1`, the melting point was 56 °C.

As to `CN(C)CC#CC1=Cc2ccccc2Sc2ccc(Cl)cc21`, the melting point lay within 118 to 120 °C.

As to `N#Cc1cc(Br)cc(-c2ccsc2)c1`, the melting point lay in the range of 62 to 63 °C.

As for `COc1ccc(S(=O)(=O)c2ccc(NC(=O)NC34CC5CC(CC(C5)C3)C4)cc2)nn1`, the melting point was in the range of 252 to 254 °C.

Take `COc1ccc2c(c1)CCC1C2CCC2(C)C(OC(C)=O)=CCC12` (centres undefined): the melting point is 97 to 100 °C.

In turn, `O=C(c1cc2cc3oc(=O)[nH]c3cc2o1)N1CCC(OCc2ccccc2)CC1` registered a melting point of 217 to 219 °C.

`O=C(O)C(O)(CC1CCCCC1)c1ccccc1` (centres undefined) came in with a melting point of 138 to 140 °C.

`Cc1cnc(N)c(Br)n1`: the melting point was 51 to 52 °C.

For `CCCc1cc(CO)cc(=O)[nH]1`, the melting point is 167 °C.

Turning to `Cc1cc(N2C=CC(=O)CC2)nn2cnnc12`, the melting point lay in the range of 264 to 266 °C.

In the case of `COc1cc2cc3c4c(cccc4c2cc1OC)C(=O)OC3=O`, the melting point is > 324 °C.

With `CCc1[nH]n(C2CCCC2)c2nc(-c3cccc(OCCN4CCCCC4)c3)nc(=O)c1-2`, the melting point stood at 180 °C.

`Cc1ccc2nc(-c3ccc4c(c3)sc(=N)n4C)sc2c1` displayed a melting point of 146 to 148 °C.

In the case of `CC(=O)OC1CSC(Oc2ccc(C(=O)NCc3ccccc3)nc2)C(OC(C)=O)C1OC(C)=O` (centres undefined), the melting point fell in the range of 177 to 178 °C.

For `Cc1c(SCCCSCc2ccc(Cl)s2)ccnc1CNc1cnc2ccccc2c1`, the melting point is 127 to 131 °C.

Take `CC(C)(C)c1cc(C(C)(C)C)c2oc(-c3cccc([N+](=O)[O-])c3O)nc2c1`: the melting point fell in the range of 148 to 150 °C.

`O=C(CN1CCN(c2ccccc2)CC1)c1ccccc1` returned a melting point of 104 to 106 °C.

Take `COc1cc2nc(N)nc(-c3ccc(O)c(C(=O)O)c3)c2cc1OC`: the melting point was > 300 °C.

`CC(=O)Nc1ccc(Sc2nc(Nc3cc(C)n[nH]3)cc(-c3ccccc3C)n2)cc1`: the melting point lay within 212 to 214 °C.

For the compound `O=C(O)C(O)=CC(=O)c1cc(Cc2ccccc2)cn(Cc2ccccc2)c1=O`, the melting point lay within 158 to 159 °C.

Compound `O=C(N[C@H]1CC[C@H](CCN2CCC(c3cccc4c3CCO4)CC2)CC1)c1ccc(-c2cccnc2)cc1` gave a melting point of 224 °C.

Regarding `O=C(CN1CCC(c2noc3cc(F)ccc23)CC1)N1Cc2ccccc2C1`, the melting point lay within 184 to 185 °C.

`NS(=O)(=O)c1cc2c(c(C(=O)O)c1)OCCO2` gave a melting point of 272 to 274 °C.

`COc1cc(COc2ccccc2O)cc(OC)c1` showed a melting point of 55 to 57 °C.

The compound `CC1(c2ccccc2)SC(=NO)N(Nc2ccccc2)C1=O` (centres undefined) returned a melting point of 62 to 63 °C.

In the case of `O=C(NCCO)c1ccc(-c2nn(Cc3ccccc3)c3ccccc23)o1`, the melting point lay in the range of 119 to 127 °C.

Regarding `CC(=O)C=Cc1ccc2c(c1)OCCO2`, the melting point turned out to be 80 °C.

For `CCOC(=O)c1ccc(OCCCCCCc2cccc(OCc3ccccc3)c2OCc2ccccc2)cc1`, the melting point lay in the range of 63 to 65 °C.

The compound `CCOC(C)n1cnc(-c2ccc(F)cc2)c1-c1ccc(F)cc1` (centres undefined) displayed a melting point of 105 to 107 °C.

In turn, `COC(=O)C1C(=O)CC(=O)CC1C` (centres undefined) returned a melting point of 122 to 123 °C.

The compound `Clc1ccc(Cc2nc(-c3ccccc3)nnc2NCCN2CCCCC2)cc1` had a melting point of 192 °C.

`COC1(C)COC(C)(OC)CO1` (centres undefined) returned a melting point of 126 to 128 °C.

For `COc1ccc(O)c2c1C1(CCC2)OCCO1`, the melting point lay in the range of 139 to 140 °C.

Regarding `NS(=O)(=O)c1cccc(C2OCCO2)c1`, the melting point fell in the range of 145 to 147 °C.

Compound `CC(CC=CC=CCC(=O)O)C1CCC2C3CCC4CC(O)CCC4(C)C3CC(O)C12C` (centres undefined) gave a melting point of 208 to 211 °C.

Take `Cc1cccc(Cc2c[nH]cn2)c1`: the melting point is 127 to 130 °C.

With `CC1(S(=O)(=O)C2(C)C=CC=CC2O)C=CC=CC1O` (centres undefined), the melting point was 95 to 97 °C.

`C#CCN(Cc1cc2c(=O)n(C)c(CN3CCC(O)CC3)nc2cc1Cl)c1ccc(C(=O)OC(C)(C)C)cc1` displayed a melting point of 208 to 210 °C.

Consider `O=C(Nc1nc2ccc(Cl)cc2c2c1ncn2-c1ccccc1Cl)c1ccccc1`, for which the melting point is 255 to 258 °C.

The compound `COC(=O)c1nn(C)nc1C(=O)OC` yielded a melting point of 86 to 87 °C.

With `O=CN1CCN(c2ccc3cc(F)ccc3n2)CC1`, the melting point fell in the range of 110 to 111 °C.

In the case of `CC(C)(C)c1ccc(C(NC(=O)c2c(F)cccc2F)N2CCOCC2)cc1` (centres undefined), the melting point was 199 to 200 °C.

As to `c1cc(Oc2cnccn2)c2cc[nH]c2c1`, the melting point was in the range of 192 to 193 °C.

Regarding `Nc1cc(C(=O)CCC(=O)O)ccc1Br`, the melting point was in the range of 169 to 171 °C.

Consider `Cc1cc(SC(C)C)c(NC(=O)CCCCCCCCSc2nc3cccc(C(F)(F)F)c3o2)c(SC(C)C)n1`, for which the melting point is 97 to 98 °C.

`CC(C)N1C(=O)c2ccccc2N(C(=O)C(C)(C)C)S1(=O)=O` had a melting point of 97.5 to 99.5 °C.

The compound `COc1cc(O)c2c(c1O)CC=CC2` displayed a melting point of 142 to 144 °C.

For `COc1cc(OC)nc(NC(=O)NS(=O)(=O)c2cccc3cccnc23)n1`, the melting point lay in the range of 175 to 177 °C.

Compound `COc1ccc(C[C@]2(C)C(=O)O[C@@H](c3ccccc3)N2C(=O)c2ccccc2)cc1` returned a melting point of 128 to 129 °C.

For the compound `OCCOc1ccc(C2CCc3ccccc3O2)cc1` (centres undefined), the melting point was 84 to 85 °C.

For `Cc1nc(CCn2cnc3c2c(=O)n(C)c(=O)n3C)no1`, the melting point lay within 112 to 114 °C.

With `Cc1ccc(C(C)C)c2c1CC(NNc1ncnc3c1ncn3C1OC(CO)C(O)C1O)CO2` (centres undefined), the melting point was 98 to 101 °C.

In turn, `CC(=O)Nc1nc(-c2ccc(SCOC(C)=O)cc2)cs1` came in with a melting point of 144 to 145 °C.

As for `O=C(Oc1ccccc1)c1ccc(-c2ccccc2)cc1`, the melting point was in the range of 146 to 149 °C.

As for `O=C(O)c1cc(S(=O)(=O)N2CCC(Br)C(Br)C2)ccc1Cl` (centres undefined), the melting point lay within 176 to 178 °C.

In the case of `CC1Cc2cc3c(cc2C(C=Cc2ccc(F)cc2)=NN1)OCO3` (centres undefined), the melting point is 170 to 174 °C.

In the case of `Cc1ccc(-c2c(C#N)cnc3ccccc23)cc1`, the melting point lay within 96 to 97 °C.

`Cc1cc2c(cc1Cl)C(c1ccccc1Cl)C(=O)N2` (centres undefined): the melting point was in the range of 203 to 209 °C.

The compound `CS(=O)(=O)N(Cc1ccccc1)c1ccc(C2CO2)cc1` (centres undefined) came in with a melting point of 89 to 92 °C.

As to `COC(=O)N1CCC(Nc2nc3ccccc3n2Cc2ccc(F)cc2)C(C)C1` (centres undefined), the melting point worked out at 172 °C.

On to `COC(=O)c1sccc1Nc1ccccc1[N+](=O)[O-]`, for which the melting point came out at 184 °C.

`CCC(CC)c1ccc(C#N)c2nc(Nc3c(C)cc(Cl)cc3OC)n(C)c12` registered a melting point of 223 to 225 °C.

With `CCOC(=O)c1cc(=O)c2c(C(C)C)cccc2[nH]1`, the melting point was in the range of 176 to 178 °C.

In turn, `C[C@@H](CN)CCC[C@@H](C)[C@H]1CC[C@H]2[C@@H]3CC=C4C[C@@H](O)CC[C@]4(C)[C@H]3CC[C@]12C` came in with a melting point of 150 to 152 °C.

Consider `O=C(O)c1ccc([N+](=O)[O-])cc1C(F)(F)F`, for which the melting point was 128 to 129 °C.

Consider `Nc1ccc(Cl)c(Cl)c1Br`, for which the melting point was in the range of 78 to 80 °C.

For `Cc1cc2[nH]c(=O)c3cnc(O)cc3n2n1`, the melting point is > 300 °C.

In the case of `CCc1nc2c(c(C)c(C)n3nnnc23)n1CCOCCNC(=O)CCCCl`, the melting point is 149 to 151 °C.

The compound `COc1ccc(C(=O)NC(N)=NC(=O)Cn2c(Cl)ccc2Cl)cc1` displayed a melting point of 215 to 217 °C.

`COc1ccc(C(=O)Oc2ccccc2)nc1C`: the melting point was 103 to 105 °C.

Consider `CCOC(=O)N[C@@H](C(=O)N1CCC[C@H]1C(=O)O)c1ccccc1`, for which the melting point is 163 to 166 °C.

In the case of `CCCc1c(OCCCSc2ccc(CC(=O)O)c(Cl)c2Cl)ccc(C(C)=O)c1O`, the melting point was in the range of 119 to 122 °C.

`CCCCCCC1C(=O)CCC1C(=O)O` (centres undefined) returned a melting point of 73 to 74 °C.

For `Oc1ccc(C(F)(F)C(F)(F)C(F)(F)/C=C/C(F)(F)C(F)(F)C(F)(F)c2ccc(O)cc2)cc1`, the melting point lay within 134 to 138 °C.

For `Nc1ncnn1C(=S)NCCCCCO`, the melting point fell in the range of 108 to 109 °C.

With `COc1cc(CSc2ccc(O)cc2)cc(O)c1O`, the melting point was 140 °C.

For the compound `CC1CC2C3CCC4=CC(=O)CCC4=C3C(c3ccc(-c4cccnc4)cc3)CC2(C)C1C(=O)C1CC1` (centres undefined), the melting point was 206 °C.

`NNC(=O)c1ccc(C(=O)O)cc1`: the melting point fell in the range of 235 to 236 °C.

These data come from a melting point compilation (Tetko et al.; mined from patent text by program, amines drawn as free bases though some values may be those of a salt).
